{
  "source": "patent US20060204562A1",
  "about": "“Microprojection arrays with improved biocompatibility” (priority 2005, published 2006)",
  "type_in_all_cases": "in vivo, hairless guinea pig",
  "key": {"[1]": {"assay": "transdermal drug absorption from gel formulation with microprojection systems, extrapolated from urinary excretion", "description": "(§1) Pretreatment and integrated systems described In U.S. application Ser. Nos. 10/971,430 and 10/970,901 were employed for the following analysis. The microprojection designs with retention features (i.e., 30a-30c) were used with the integrated system while the microprojection designs without retention features (i.e., 30d-30g) were used with the pretreatment system.\n(§2) Following application of the systems, the gel formulation was left in contact with the skin for up to 24 h."}, "[2]": {"assay": "urinary excretion of intact RWJ-445167 following IV injection (LC-MS)", "settings": "following IV injection of 0.5 to 3 mg RWJ-445167"}, "[3]": {"assay": "skin site irritation and bleeding after 24 h system wearing (erythema+edema score, photographs)", "description": "as §1, §2\nReferring now to FIG. 4, there is shown a series of photographs of the skin site following 24 h system wearing time.\nAn additional experiment using the pretreatment system was performed to compare microprojections lengths of 120 and 145 μm.\nReferring now to FIG. 6, there is shown a graph illustrating the combined erythema+edema score obtained with the various microprojection designs. […] The results thus confirm that lower irritation is observed with shorter microprojections. Further, the skin site was not distinguishable from control sites (24 h wearing with the same formulation, no microprojection treatment)."}},
  "data": [
    {"compound": "Cc1cccc(S(=O)(=O)Nc2ccc(C)n(CC(=O)NCCON=C(N)N)c2=O)c1", "note": "[RWJ-445167]", "values": [
      {"measurement": "enhancement factor", "setting": "[1]; 120 μm microprojection array pretreatment vs no microprojection treatment", "result": "at least 10000 fold"},
      {"measurement": "duration of delivery", "setting": "[1]; 120 μm microprojections (FIG. 8)", "result": "sustained delivery for 24 h"},
      {"measurement": "drug absorbed", "setting": "[1]; following pretreatment with a 120 μm microprojection array, 24 h wearing, 20 wt % gel formulation", "result": "about 2.5 mg"},
      {"measurement": "drug absorption", "setting": "[1]; formulation applied to the skin for 24 h in the absence of treatment with a microprojection array, detection limit", "result": "< 0.2", "unit": "μg absorbed per 24 h"},
      {"measurement": "dose found excreted intact in urine", "setting": "[2]", "result": "7.5 % of the dose"},
      {"measurement": "combined erythema+edema score (irritation)", "setting": "[3]; 120 μm microprojections (FIG. 6), 24 h wearing", "result": "absence of irritation"},
      {"measurement": "bleeding / erythema at skin site", "setting": "[3]; pretreatment system, 120 μm microprojection length (FIG. 5)", "result": "no bleeding or erythema"},
      {"measurement": "bleeding at skin site", "setting": "[3]; pretreatment system, 145 μm microprojection length (FIG. 5)", "result": "some pinpoint bleeding"}
    ]}
  ]
}
